Source: patent US7928098B2, “Therapeutic and/or preventive agents for a sleep disorder” (Kyowa Hakko Kirin Co., Ltd., priority 2005, dated 2011)

Key:
ddY male mice = experiment: Effect on pentobarbital sodium-induced sleeping time (loss of righting reflex); assay type: in vivo; settings: test compound 10 mg/kg p.o. one hour before pentobarbital-Na 25 mg/kg s.c.
Procedure: The test was conducted to examine influence of Compound (I) of the present invention on pentobarbital sodium-induced sleeping time, according to the method of Iyakuhin no Kaihatsu, Vol. 9, Iyakuhin no Tansaku I, “antihypnotic”, p. 220-226, Hirokawa Shoten.
For the test, ddY male mice (19-21 g body weight; Japan SLC, Inc.) were used. All test compounds were used by suspending in distilled water (Otsuka Pharmaceutical Factory, Inc.) containing 0.5 volume/weight % methylcellulose (0.5% MC: Wako Pure Chemical Industries, Ltd.). A volume of 0.1 mL was administered per 10 g body weight of mice.
Groups of seven mice were used. To the control groups were orally administrated 0.5% MC, whereas a suspension of the test compound was orally administered to the test compound administered groups. One hour after the administration, pentobarbital sodium (pentobarbital-Na: Tokyo Chemical Industry Co., Ltd., 25 mg/kg) was administered subcutaneously. Mouse placed in a recumbent position, the mouse immediately returns to a proper upright position (this is known as righting reflex). However, the administration of pentobarbital sodium eliminated the righting reflex in the control groups. The time period in which the administration of […] eliminated the righting reflex was regarded as a sleeping time. By a measurement of time disappearing righting reflex immediately after the administration, the sleeping time was determined.

[1] = Table 5-2, groups of seven, controls 40.00 ± 5.32 (r5) and 45.87 ± 4.17 (r12)
[2] = Table 5-1, groups of seven, controls 52.12 ± 5.20 (r5) and 35.56 ± 5.21 (r11)

Row | melting point | SMILES | Sleeping time (min) Mean value ± standard deviation (ddY male mice; [1]) | Sleeping time (min) Mean value ± standard deviation (ddY male mice; [2])
1 | 232 to 235 °C | N#Cc1ccc(C(=O)Nc2nc(-c3ccco3)c(C(=O)c3ccccn3)s2)cc1 [Compound 114, 4-Cyano-N-[4-(2-furyl)-5-(pyridin-2-ylcarbonyl)thiazol-2-yl]benzamide] | 0.63 ± 0.53 min | 
2 | 204 to 206 °C | O=C(Nc1nc(-c2ccco2)c(C(=O)C2CCOCC2)s1)c1ccc(Cl)cc1 [Compound 376, 4-Chloro-N-[4-(2-furyl)-5-(tetrahydropyran-4-ylcarbonyl)-thiazol-2-yl]benzamide] |  | 0.00 ± 0.00 min
3 | 184 to 185 °C | O=C(Nc1nc(-c2ccco2)c(C(=O)c2ccccn2)s1)c1ccco1 [Compound 142, N-[4-(2-Furyl)-5-(pyridin-2-ylcarbonyl)thiazol-2-yl]furan-2-carboxamide] | 4.52 ± 4.41 min | 
4 | 190 to 192 °C | Cc1ccc(C(=O)Nc2nc(-c3ccco3)c(C(=O)C3CCOCC3)s2)cc1 [Compound 365, N-[4-(2-Furyl)-5-(tetrahydropyran-4-ylcarbonyl)thiazol-2-yl]-4-methylbenzamide] | 0.05 ± 0.05 min | 
5 | 202 to 209 °C | O=C(Nc1nc(-c2ccco2)c(C(=O)C2CCOCC2)s1)c1ccncc1 [Compound 360, N-[4-(2-Furyl)-5-(tetrahydropyran-4-ylcarbonyl)thiazol-2-yl]pyridine-4-carboxamide] | 0.03 ± 0.02 min | 
6 | 191 to 192 °C | O=C(c1ccccn1)c1sc(NC(=O)C2CC2)nc1-c1ccco1 [Compound 99, N-[4-(2-Furyl)-5-(pyridin-2-ylcarbonyl)thiazol-2-yl]cyclopropanecarboxamide] | 0.05 ± 0.02 min | 
7 | 233 to 235 °C | O=C(Nc1nc(-c2ccco2)c(C(=O)C2CCOCC2)s1)c1ccc(Cl)nc1 [Compound 407, 2-Chloro-N-[4-(2-furyl)-5-(tetrahydropyran-4-ylcarbonyl)-thiazol-2-yl]pyridine-5-carboxamide] |  | 0.00 ± 0.00 min
8 |  | O=C(Nc1nc(-c2ccco2)c(C(=O)c2ccc(F)cc2)s1)c1ccncc1 [Compound 78, N-[5-(4-Fluorobenzoyl)-4-(2-furyl)thiazol-2-yl]pyridine-4-carboxamide] | 8.66 ± 4.67 min | 
9 |  | Cc1ccc(C(=O)Nc2nc(-c3ccco3)c(C(=O)C3CCOCC3)s2)cn1 [Compound 409, N-[4-(2-Furyl)-5-(tetrahydropyran-4-ylcarbonyl)thiazol-2-yl]-2-methylpyridine-5-carboxamide] | 0.05 ± 0.05 min | 
10 |  | O=C(Nc1nc(-c2ccco2)c(-c2ccncc2)s1)c1ccncc1 [Compound 1, N-[4-(2-Furyl)-5-(4-pyridyl)thiazol-2-yl]pyridine-4-carboxamide] |  | 15.58 ± 8.50 min
11 |  | O=C(Nc1nc(-c2ccco2)c(-c2ccncc2)s1)c1ccco1 [Compound 7, N-[4-(2-Furyl)-5-(4-pyridyl)thiazol-2-yl]furan-2-carboxamide] |  | 6.38 ± 4.58 min
12 |  | O=C(Nc1nc(-c2ccco2)c(-c2ccncc2)s1)c1ccc(Cn2ccnc2)cc1 [Compound 11, N-[4-(2-Furyl)-5-(4-pyridyl)thiazol-2-yl]-4-(imidazole-1-ylmethyl)benzamide] |  | 22.75 ± 6.63 min
13 |  | O=C(Nc1nc(-c2ccco2)c(-c2ccncc2)s1)c1cccnc1 [Compound 5, N-[4-(2-Furyl)-5-(4-pyridyl)thiazol-2-yl]pyridine-3-carboxamide] |  | 0.82 ± 0.82 min
14 |  | O=C(Nc1nc(-c2ccco2)c(-c2ccncc2)s1)c1ccoc1 [Compound 8, N-[4-(2-Furyl)-5-(4-pyridyl)thiazol-2-yl]furan-3-carboxamide] |  | 4.16 ± 4.16 min
